Assay: xn = mol fraction of the nth substance listed

CCCCCC[n+]1ccn(C)c1.O=[N+]([O-])c1cn[n-]c1 + CCCCCCCC[P+](CC)(CC)CC.O=S(=O)([N-]S(=O)(=O)C(F)(F)F)C(F)(F)F
Details	viscosity [mPa·s]
288.15 K, 100 kPa, x2 = 0.1	770

CN1CCN(C)C1=O + CCCCCCCCn1cc[n+](C)c1.[Cl-]
100 kPa
Details	viscosity [mPa·s]
288.15 K, x2 = 0.3018	87.7
288.15 K, x2 = 0.4964	614
293.15 K, x2 = 0.3991	158.4
303.15 K, x2 = 0.2056	16.57
303.15 K, x2 = 0.4964	230
308.15 K, x2 = 0.7994	1104
313.15 K, x2 = 0.4964	129.8
313.15 K, x2 = 0.7994	774
318.15 K, x2 = 0.4964	100.2
323.15 K, x2 = 0.4964	79.4
328.15 K, x2 = 0.105	3.05
328.15 K, x2 = 0.3991	31.3
333.15 K, x2 = 0.7007	148

CCCCCO + CCCCCC[n+]1ccn(C)c1.[Cl-]
Details	viscosity [mPa·s]
303.15 K, 101 kPa, x1 = 1	3.03

CN1CCN(C)C1=O + CCCCCC[n+]1ccn(C)c1.[Cl-]
100 kPa
Details	viscosity [mPa·s]
288.15 K, x2 = 0	2.368
288.15 K, x2 = 0.1007	6.33
303.15 K, x2 = 0.1999	9.99
308.15 K, x2 = 0	1.616
308.15 K, x2 = 0.1999	8.56
308.15 K, x2 = 0.3856	44.3
318.15 K, x2 = 0.6969	182
323.15 K, x2 = 0.1007	2.8
323.15 K, x2 = 0.2985	12.78
323.15 K, x2 = 0.4985	45.7
328.15 K, x2 = 0	1.195
333.15 K, x2 = 0.2985	9.67

CCCCCCCC[N+]1(C)CCCC1.O=S(=O)([N-]S(=O)(=O)C(F)(F)F)C(F)(F)F + CCCCOC(C)=O
298.15 K, 100 kPa
Details	electrical conductivity [S/m]	viscosity [mPa·s]
x2 = 0.2414	0.145	–
x2 = 0.2589	–	51.3
x2 = 0.6824	0.353	–
x2 = 0.7923	0.355	–
x2 = 0.8427	0.326	–

O=S(=O)([N-]S(=O)(=O)C(F)(F)F)C(F)(F)F.[Li+] + CCCC[N+]1(C)CCCC1.O=S(=O)([N-]S(=O)(=O)C(F)(F)F)C(F)(F)F
100 kPa, x1 = 0.24
Details	electrical conductivity [S/m]
277.9 K	0.007
283.4 K	0.016
298 K	0.062
346.4 K	0.429

O=S(=O)([N-]S(=O)(=O)C(F)(F)F)C(F)(F)F.[Li+] + CCCC[N+]1(C)CCCC1.O=S(=O)([N-]S(=O)(=O)C(F)(F)F)C(F)(F)F + O
viscosity [mPa·s], 100 kPa
Details	293.15 K	298.15 K	303.15 K	313.15 K	323.15 K	333.15 K	343.15 K	353.15 K	363.15 K
x1 = 0.2745, x2 = 0.2745	117	85.1	66.1	43	29.5	20.8	15.8	11.9	9.38
x1 = 0.3106, x2 = 0.2745	144	110	85.8	52.2	34.6	24.4	17.9	13.6	10.6
x1 = 0.3509, x2 = 0.2745	242	179	135	82.5	49.1	33.5	23.9	17.7	13.6
x1 = 0.3868, x2 = 0.2745	437	334	246	141	87.5	52.3	35.9	25.8	19.3
x1 = 0.4308, x2 = 0.2745	599	421	304	171	104	62.1	42	29.9	21.5

O=C(O)CC(O)(CC(=O)O)C(=O)O + CCCC[N+](CCCC)(CCCC)CCCC.[Cl-] + O
100 kPa, x2 = 0.1428, x1 = 0.1428
Details	electrical conductivity [S/m]	viscosity [mPa·s]
293.15 K	0.0384	620
303.15 K	0.0639	380
313.15 K	0.103	245
323.15 K	0.161	161
333.15 K	0.245	108

NC(=O)C[C@H](N)C(=O)O + CCCC[N+](CCCC)(CCCC)Cc1ccccc1.[Cl-] + O
electrical conductivity [S/m], 100 kPa, frequency 0.001 MHz
Details	293.15 K	298.15 K	303.15 K	308.15 K	313.15 K
x1 = 0.0001802, x2 = 1.802e-05	0.0457	0.0482	0.0503	0.052	0.0553
x1 = 0.0001803, x2 = 5.405e-05	0.0516	0.0545	0.0572	0.0607	0.0639
x1 = 0.0001804, x2 = 9.008e-05	0.0589	0.066	0.0748	0.0813	0.0899
x1 = 0.0004504, x2 = 1.801e-05	0.0517	0.0574	0.059	0.0615	0.0657
x1 = 0.0004507, x2 = 5.403e-05	0.0603	0.0634	0.0663	0.0714	0.0753
x1 = 0.000451, x2 = 9.005e-05	0.0728	0.0771	0.0832	0.0889	0.0937
x1 = 0.0007205, x2 = 1.801e-05	0.057	0.0653	0.0683	0.0709	0.0773
x1 = 0.0007209, x2 = 5.402e-05	0.0678	0.072	0.0765	0.0809	0.0884
x1 = 0.0007213, x2 = 9.003e-05	0.0805	0.087	0.0917	0.0967	0.104
x1 = 0.0009904, x2 = 1.8e-05	0.0635	0.0749	0.0776	0.0796	0.0859
x1 = 0.000991, x2 = 5.4e-05	0.0716	0.0812	0.0854	0.0913	0.0954
x1 = 0.0009916, x2 = 9e-05	0.0886	0.0965	0.102	0.104	0.111
x1 = 0.00126, x2 = 1.8e-05	0.0698	0.0826	0.0859	0.0888	0.0951
x1 = 0.001261, x2 = 5.399e-05	0.0783	0.0903	0.0935	0.0999	0.113
x1 = 0.001262, x2 = 8.998e-05	0.102	0.105	0.108	0.112	0.127
x1 = 0.00153, x2 = 1.799e-05	0.086	0.092	0.0943	0.0983	0.11
x1 = 0.001531, x2 = 5.397e-05	0.0934	0.0997	0.105	0.108	0.115
x1 = 0.001532, x2 = 8.995e-05	0.107	0.111	0.116	0.121	0.138

viscosity [mPa·s], 100 kPa
Details	293.15 K	298.15 K	303.15 K	308.15 K	313.15 K
x1 = 0.0001802, x2 = 1.802e-05	0.959	0.919	0.882	–	–
x1 = 0.0001803, x2 = 5.405e-05	0.967	0.926	0.885	–	–
x1 = 0.0001804, x2 = 9.008e-05	0.978	0.935	0.898	–	–
x1 = 0.0004504, x2 = 1.801e-05	0.965	0.925	0.888	0.851	0.798
x1 = 0.0004507, x2 = 5.403e-05	0.974	0.932	0.892	0.858	0.802
x1 = 0.000451, x2 = 9.005e-05	0.985	0.941	0.904	0.862	0.81
x1 = 0.0007205, x2 = 1.801e-05	0.97	0.931	0.894	0.857	0.804
x1 = 0.0007209, x2 = 5.402e-05	0.98	0.938	0.898	0.864	0.809
x1 = 0.0007213, x2 = 9.003e-05	0.992	0.947	0.91	0.868	0.817
x1 = 0.0009904, x2 = 1.8e-05	0.975	0.936	0.899	0.863	0.81
x1 = 0.000991, x2 = 5.4e-05	0.985	0.943	0.904	0.87	0.815
x1 = 0.0009916, x2 = 9e-05	0.997	0.952	0.916	0.874	0.825
x1 = 0.00126, x2 = 1.8e-05	0.98	0.941	0.905	0.869	0.817
x1 = 0.001261, x2 = 5.399e-05	0.99	0.948	0.909	0.877	0.822
x1 = 0.001262, x2 = 8.998e-05	1.003	0.958	0.922	0.88	0.831
x1 = 0.00153, x2 = 1.799e-05	0.984	0.946	0.91	0.875	0.823
x1 = 0.001531, x2 = 5.397e-05	0.995	0.954	0.915	0.883	0.829
x1 = 0.001532, x2 = 8.995e-05	1.008	0.964	0.929	0.887	0.839

CCC(=O)CC + CCCC[n+]1ccn(C)c1.F[P-](F)(F)(F)(F)F
298.15 K, 101.3 kPa
Details	viscosity [mPa·s]
x1 = 0.1927	81.4
x1 = 0.3014	42.7
x1 = 0.5009	13.36
x1 = 0.652	5.36

CCCCCO + CCCC[n+]1ccn(C)c1.N#C[S-]
Details	viscosity [mPa·s]
298.15 K, 101 kPa, x1 = 1	3.37

CCCCCO + CCCC[n+]1ccn(C)c1.O=S(=O)([N-]S(=O)(=O)C(F)(F)F)C(F)(F)F
298 K, 100 kPa
Details	electrical conductivity [S/m]	viscosity [mPa·s]
x2 = 0	–	3.486
x2 = 0.5988	–	20.14
x2 = 0.6	0.5605	–
x2 = 0.6994	–	25.03
x2 = 0.7	0.526	–
x2 = 0.8	0.487	–
x2 = 0.8014	–	31.59
x2 = 0.9	0.4445	–
x2 = 0.9023	–	39

OCCO + CCCC[n+]1ccn(C)c1.O=S(=O)([N-]S(=O)(=O)C(F)(F)F)C(F)(F)F
100 kPa
Details	viscosity [mPa·s]
293.15 K, x2 = 0.2002	34.4
293.15 K, x2 = 0.4015	41.6
298.15 K, x2 = 0.2002	27.2
308.15 K, x2 = 0.2997	18.6
308.15 K, x2 = 0.7003	21.8
313.15 K, x2 = 0.2997	15.6
318.15 K, x2 = 0.2997	13.3
318.15 K, x2 = 0.7003	15.6
323.15 K, x2 = 0.2997	11.5
323.15 K, x2 = 0.7993	14.8
323.15 K, x2 = 0.9	17
328.15 K, x2 = 0.4015	10.4
328.15 K, x2 = 0.6007	11.3
328.15 K, x2 = 0.9	14.7
333.15 K, x2 = 0.2002	8.11
333.15 K, x2 = 0.7993	11.3
338.15 K, x2 = 0.7993	10

OCCO + CCCC[n+]1ccn(C)c1.O=S(=O)([O-])C(F)(F)F
Details	viscosity [mPa·s]
303.15 K, 100 kPa, x2 = 0	13.49
